How the values were obtained:
[1] = biological target: T1, human metabotropic glutamic acid receptor 1a (mGluR1a) (Homo sapiens, UniProt Q13255); test: Measurement of intracellular calcium concentration (FLIPR) in mGluR1a-expressing CHO cells; format: cell-based; conditions: for IC50: Fluo-3, compound added 5 minutes before 10 μM glutamic acid, read-out: IC50 (inhibition of the calcium increase caused by 10 μM glutamic acid); for agonistic effect to mGluR1: to 10 μM, intracellular calcium
T1 construct: expressed in transfected cells
T1 sequence (Q13255 19-1194): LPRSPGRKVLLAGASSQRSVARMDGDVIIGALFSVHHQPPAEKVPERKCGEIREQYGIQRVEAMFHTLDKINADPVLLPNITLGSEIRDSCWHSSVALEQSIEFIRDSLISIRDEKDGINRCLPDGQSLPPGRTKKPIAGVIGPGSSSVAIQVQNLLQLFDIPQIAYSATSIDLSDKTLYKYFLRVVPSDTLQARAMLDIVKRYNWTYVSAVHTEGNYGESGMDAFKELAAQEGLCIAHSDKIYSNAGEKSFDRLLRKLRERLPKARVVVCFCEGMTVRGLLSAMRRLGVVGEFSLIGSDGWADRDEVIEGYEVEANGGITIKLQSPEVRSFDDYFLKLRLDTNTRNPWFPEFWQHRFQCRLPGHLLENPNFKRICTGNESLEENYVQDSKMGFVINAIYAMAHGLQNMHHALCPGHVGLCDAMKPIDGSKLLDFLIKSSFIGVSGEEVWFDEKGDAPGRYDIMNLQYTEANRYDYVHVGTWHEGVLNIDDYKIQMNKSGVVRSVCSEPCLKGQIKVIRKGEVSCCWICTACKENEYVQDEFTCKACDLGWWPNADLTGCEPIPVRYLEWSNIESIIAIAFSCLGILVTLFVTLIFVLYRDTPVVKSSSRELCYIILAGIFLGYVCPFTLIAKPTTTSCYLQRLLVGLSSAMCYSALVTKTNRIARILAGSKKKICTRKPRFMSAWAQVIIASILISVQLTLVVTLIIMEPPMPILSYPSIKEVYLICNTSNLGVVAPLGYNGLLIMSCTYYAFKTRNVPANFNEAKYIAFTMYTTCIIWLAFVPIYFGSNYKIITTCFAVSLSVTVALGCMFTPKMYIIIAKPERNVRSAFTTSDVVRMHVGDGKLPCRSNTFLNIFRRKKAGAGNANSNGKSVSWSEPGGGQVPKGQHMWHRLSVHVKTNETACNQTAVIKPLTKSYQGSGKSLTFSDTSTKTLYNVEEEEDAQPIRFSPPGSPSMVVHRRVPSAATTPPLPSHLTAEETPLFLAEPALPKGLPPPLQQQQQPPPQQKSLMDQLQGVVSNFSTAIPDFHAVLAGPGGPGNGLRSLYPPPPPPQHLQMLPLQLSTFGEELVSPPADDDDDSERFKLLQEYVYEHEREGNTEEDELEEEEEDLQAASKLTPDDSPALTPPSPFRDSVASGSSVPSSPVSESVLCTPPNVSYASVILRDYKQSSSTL
Method: Using LIPOFECTAMINE (BY Gibco BRL), CHO cells were transfected with a cDNA of a human metabotropic glutamic acid receptor 1a (mGluR1a), thereby obtaining an mGluR1a stable expression strain. The mGluR1a-expressing CHO cells were incubated in a DMEM medium containing 10% dialyzed fetal calf serum, 1% proline, 100 units/ml penicillin, 0.1 mg/ml streptomycin sulfate, and 2 mM glutamine.
On the day before the test day, the mGluR1a-expressing CHO cells that had been plated in a 96-well black plate (View Plate by Packard) at […] with 4 μM Fluo-3 were incubated in a CO2 incubator for 1 hour. Next, the cells were washed four times with an HBSS solution containing 20 mM HEPES and 2.5 mM Probenecid, and then the intracellular calcium concentration was measured using Fluorescence Imaging Plate Reader (FLIPR by Molecular Device). The test compound and glutamic acid were conditioned with an HBSS solution containing 20 mM HEPES and 2.5 mM Probenecid. The test compound was added to the system before 5 minutes of agonist stimulation, and 10 μM glutamic acid was used as the agonist.

[2] = system: Male ICR (CD-1) mice; test: Inhibitory effect of compound to mouse action increased by methamphetamine; format: in vivo; conditions: compound 30 mg/kg intraabdominal 30 minutes before methamphetamine 2 mg/kg subcutaneous; motion watched for 60 minutes
Method: Male ICR (CD-1) mice (20-40 g) were used. Using a motion watcher (by Neuroscience) for watching animal movement with an IR sensor, the motion of the mice was determined. A compound or a suitable solvent was administered to each mouse, and after 30 minutes, physiological saline water or methamphetamine was administered thereto. Immediately after that, the motion of the mice was watched for 60 minutes. Based on the difference between the motion of the methamphetamine-administered group and the solvent-administered group during the test term, 100%, the motion of the test compound-administered group is computed and expressed as inhibition %.

SMILES | IC50 [1] | agonistic effect to mGluR1 [1] | Motion (inhibition %) [2]
CC(C)(C)COC(=O)N1CCN(c2nc3ccccc3o2)CC1 [Example 3, 2,2-Dimethylpropyl 4-(benzoxazol-2-yl)-1-piperazinecarboxylate] | 0.033 µM | no agonistic effect | 
C[C@@H](O)c1nc(-c2ccnc(N3CCN(C(=O)OCC(C)(C)C)CC3)c2)no1 [Example 27, 2,2-Dimethylpropyl 4-(4-{5-[(1R)-1-hydroxyethyl]-1,2,4-oxadiazol-3-yl}pyridin-2-yl)-1-piperazinecarboxylate] | 0.0096 µM | no agonistic effect | >50%
CNc1nc(-c2ccnc(N3CCN(C(=O)OCC(C)(C)C)CC3)c2)no1 [Example 39, 2,2-Dimethylpropyl 4-{4-[5-(methylamino)-1,2,4-oxadiazol-3-yl]pyridin-2-yl}-1-piperazinecarboxylate] | 0.013 µM | no agonistic effect | >50%
Cc1ccnc(N2CCN(C(=O)OCC(C)(C)C)CC2)c1 [Example 1, 2,2-Dimethylpropyl 4-(4-methylpyridin-2-yl)-1-piperazinecarboxylate] | 0.0069 µM | no agonistic effect | >50%
C[C@H](O)c1nc(-c2ccnc(N3CCN(C(=O)CCC(C)(C)C)CC3)c2)no1 [Example 58, 1-(4,4-Dimethylpentanoyl)-4-(4-{5-[(1S)-hydroxyethyl]-1,2,4-oxadiazol-3-yl}pyridin-2-yl)piperazine] | 0.016 µM | no agonistic effect | >50%

— patent US8101618B2, “1,4-substituted piperazine derivatives” (MSD K.K., priority 2005, dated 2012)
